Data reported in patent EP2348142B1, “Method and composition for removing scale deposits formed on a metal surface within a steam generating system” (Westinghouse Electric Company LLC, priority 2010, dated 2011).
Where two headings read alike, the source gives them in different places.

What was measured:
[1] = at 25 °C; cited from earlier work
[2] = Example 11; base raised from 0.15-0.2 wt% to 5 wt%; covers both solids
Protocol: In order to verify this assumption, solutions of TMAH were compared with those of the similarly strong base choline hydroxide (CholOH). Mixtures of 0.06 g sand + 0.06 g boehmite or 0.06 g sand + 0.06 g boehmite + 0.68 g magnetite were exposed to volumes of 40 mL of several solutions of TMAH or CholOH for 48 hours at a temperature of 80 °C. Each experiment was carried out in duplicate. The spent test solutions were analyzed to determine the concentrations of dissolved Si, Al, and Fe and the percentage of each of the corresponding oxides in the test solutions was calculated.

[3] = Example 1; both stages; covers B+S and B+S+M
Protocol: An example embodiment of the present invention was evaluated in laboratory testing using mixtures of 0.06 g of boehmite and 0.06 g of silica sand (B+S) or of 0.06 g of boehmite, 0.06 g of silica sand, and 0.68 g of magnetite (B+S+M). These mixtures were heated at 80 °C for 1 day, with 40 mL volumes of a solution of 381 ppm (0.0381%) of TMAH in de-ionized water, adjusted with boric acid to a room-temperature pH of 11.0.
At the end of 1 day, the solutions were removed for analysis of dissolved Al, Si, and Fe, and the experiment on the residual solids was continued for an additional 2-day interval using fresh volumes of the original solutions. In addition to the fractions of each oxide dissolved during the experiment, the mole ratios of metals dissolved to base (TMAH or DMA) introduced were also calculated.

[4] = Example 2; for ratio of dissolved metals (Al, Si and Fe) to base: unadjusted solutions, both stages
Protocol: Other example embodiments of the present invention were evaluated in laboratory testing using mixtures of 0.02 g of boehmite and 0.02 g of silica sand (B+S), and 0.23 g of magnetite (B+S+M). These mixtures were heated at 80 °C for 1 day, with 40 mL volumes of solutions of 1500 ppm (0.15%) of TMAH in de-ionized water, without pH adjustment, adjusted with boric acid to a room-temperature pH of 11.0, or adjusted with boric acid to a room-temperature pH of 9.0.
All the solutions were sparged with nitrogen for 15 minutes at the beginning of each experiment.
After one day (∼ 24 hours), the solutions were removed for analysis of dissolved Al, Si, and Fe. The experiment on the residual solids was continued for an additional 2-day interval using fresh volumes of the original solutions. In addition to the fractions of each oxide dissolved during the experiment, the mole ratios of metals dissolved to base (TMAH or DMA) introduced were also calculated.

[5] = Example 3; both stages; covers B+S and B+S+M
Protocol: Another example embodiment of the present invention was evaluated in laboratory testing using mixtures of 0.06 g of boehmite and 0.06 g of silica sand (B+S) or of 0.06 g of boehmite, 0.06 g of silica sand, and 0.68 g of magnetite (B+S+M). These mixtures were heated at 80 °C for 1 day with 40 mL volumes of a solution of 46 ppm (0.0046%) of TMAH in de-ionized water, having a room-temperature pH of 10.8.
At the end of 1 day, the solutions were removed and analyzed for dissolved Al, Si, and Fe. The experiment on the residual solids was continued for an additional 2-day interval using fresh volumes of the original solutions. In addition to the fraction of each oxide dissolved during the experiment, the mole ratios of metals dissolved to base (TMAH or DMA) introduced were also calculated.

[6] = Example 4; covers B+S and B+S+M
Protocol: Another example embodiment of the present invention was evaluated in laboratory testing using mixtures of 0.06 g of boehmite and 0.06 g of silica sand (B+S) or of 0.06 g of boehmite, 0.06 g of silica sand, and 0.68 g of magnetite (B+S+M). These mixtures were heated at 80 °C for 1 day, with 40 mL volumes of a combined solution of 50.8 g/L (5.08%) of TMAH and 10 g•L^-1 (1%) of ethylenediaminetetra-acetic acid (EDTA) in de-ionized water.
At the end of 1 day, the solutions were removed for analysis of dissolved Al, Si, and Fe. In addition to fractions of each oxide dissolved during the experiment, the mole ratios of the amount of metals dissolved to base (TMAH or DMA) introduced were also calculated.

[7] = Dissolution of boehmite (Example 5); details: 0.03 g boehmite alone
[8] = Coupon corrosion test with pre-heated TMAH solutions (Example 9); details: 5 wt% TMAH + 1 wt% EDTA
Protocol: In order to determine the effect of possible thermal degradation of TMAH on its corrosivity towards steel, C1018 carbon steel coupons were tested in three solutions of 5 wt% TMAH + 1 wt% EDTA. […] One of these solutions was not pre-exposed to elevated temperatures. The second solution was exposed to a temperature of 130 ±10 °C for two days before being used in the test. During pre-heating period, the 20-mL Parr bomb in which the solution was heated was almost full, leaving very little vapor space above the solution. The third solution was similarly pre-heated at 130 ±10 °C for two days, but the Parr bomb was only half-full, holding 10 mL of solution and 10 mL of air. The three TMAH solutions were later used in testing of 1018 carbon steel coupons in 40 mL of testing solution for 1 week.

[9] = cited from earlier work

| SMILES | pH [1] | extent of dissolution of boehmite increased by a factor [2] | ratio of dissolved Al to base [3] | ratio of dissolved metals (Al, Si and Fe) to base [4] | ratio of dissolved Al to base [5] | ratio of total dissolved metal (predominantly dissolved Al) to introduced base [6] | further results |
| --- | --- | --- | --- | --- | --- | --- | --- |
| C1=NCCCN2CCCCC12 (stereo not shown) [1,5-diazabicyclo(5,4,0)undec-5-ene] | 13.40 |  |  |  |  |  |  |
| C[N+](C)(C)CCO.[OH-] [CholOH, choline hydroxide] |  | approximately 1.7 |  |  |  |  |  |
| CNC [DMA, dimethylamine, reference compound] |  |  | 0.06-0.07 | 0.03-0.06 | 0.04-0.10 | 0.02-0.04 | pKa [1]: about 10.61 |
| C[N+](C)(C)C.[OH-] [TMAH, Tetramethylammonium hydroxide] |  | approximately 1.7 | 0.24-0.29 | 0.09-0.10 | 0.05-0.27 | 0.15-0.16 | dissolution of Al higher by a factor, versus DMA solution [7]: 13; pH of the solution ([8]; after pre-heating in the absence of air): approximately 13.4; pH of the solution ([8]; before pre-heating): approximately 13.0; mole ratios higher by factors, TMAH versus DMA ([4]; pH adjusted solutions): 2-8; more effective than DMA by a factor (mole ratio calculations) [6]: 4-7; thermally stable in aqueous solutions up to [9]: 130-135 °C |
| CCCCN [mono-N-butylamine] | 10.61 |  |  |  |  |  |  |
